Data from ChEMBL document CHEMBL3880421, “Indazole compounds and pharmaceutical compositions for inhibiting protein kinases, and methods for their use” (2003).

experiment: Antiproliferative activity against VEGF-stimulated HUVEC cells assessed as reduction in cell viability at 10 nM preincubated for 1 hr followed by addition of VEGF measured after 72 hrs by MTT assay; format: functional; conditions: Homo sapiens

First: COc1ccc(C#N)c(C(=O)Nc2cccc(Nc3ccc4c(/C=C/c5ccccc5)n[nH]c4c3)c2)c1
Second: COc1ccc(C#N)c(C(=O)Nc2cccc(Oc3ccc4c(/C=C/c5ccccc5)n[nH]c4c3)c2)c1
The inhibition at 0.01 µM of the first is lower: -18% for the first, 18% for the second.

Going from `CC(C)CC(=O)C(=O)Nc1cccc(Oc2ccc3c(/C=C/c4ccccc4)n[nH]c3c2)c1` to `CC(=O)NC(C)(C)CC(=O)Nc1cccc(Oc2ccc3c(/C=C/c4ccccc4)n[nH]c3c2)c1`, the inhibition at 0.01 µM falls from 64% to 42%.

Going from `Cc1cc(C(=O)Nc2cccc(Oc3ccc4c(/C=C/c5ccccc5)n[nH]c4c3)c2)n[nH]1` to `O=C(Nc1cccc(Oc2ccc3c(/C=C/c4ccccc4)n[nH]c3c2)c1)c1cc(=O)[nH]c(=O)[nH]1`, the inhibition at 0.01 µM falls from 150% to 90%.

First: COc1ccccc1/C=C/C(=O)Nc1cccc(Oc2ccc3c(/C=C/c4ccccc4)n[nH]c3c2)c1
Second: COc1ccccc1/C=C/C(=O)Nc1cccc(Nc2ccc3c(/C=C/c4ccccc4)n[nH]c3c2)c1
The inhibition at 0.01 µM of the first is higher: 17% for the first, 10% for the second.

Going from `O=C(CCC(=O)N1CCCC1)Nc1cccc(Nc2ccc3c(/C=C/c4ccccc4)n[nH]c3c2)c1` to `CC(=O)N1CCC(C(=O)Nc2cccc(Nc3ccc4c(/C=C/c5ccccc5)n[nH]c4c3)c2)CC1`, the inhibition at 0.01 µM rises from -8% to 13%.

Compared with `O=C(Cc1ccccc1)C(=O)Nc1cccc(Nc2ccc3c(/C=C/c4ccccc4)n[nH]c3c2)c1`, `O=C(Cc1ccccc1)C(=O)Nc1cccc(Oc2ccc3c(/C=C/c4ccccc4)n[nH]c3c2)c1` is higher in inhibition at 0.01 µM: 11% for the first, 25% for the second.

Going from `C/C(=C\C(=O)Nc1cccc(Nc2ccc3c(/C=C/c4ccccc4)n[nH]c3c2)c1)c1ccccc1C` to `O=C(Nc1cccc(Nc2ccc3c(/C=C/c4ccccc4)n[nH]c3c2)c1)c1cccc2cc[nH]c12`, the inhibition at 0.01 µM rises from 75% to 94%.

First: O=C(Cc1cc(F)ccc1F)Nc1cccc(Oc2ccc3c(/C=C/c4ccccc4)n[nH]c3c2)c1
Second: O=C(Cc1cc(F)ccc1F)Nc1cccc(C(=O)c2ccc3c(/C=C/c4ccccc4)n[nH]c3c2)c1
The inhibition at 0.01 µM of the first is higher: 91% for the first, 80% for the second.

Compared with `CC(=O)N1CCC[C@@H]1C(=O)Nc1cccc(C(=O)c2ccc3c(/C=C/c4ccccc4)n[nH]c3c2)c1`, `O=C(c1cccc(NC(=O)C2CCCO2)c1)c1ccc2c(/C=C/c3ccccc3)n[nH]c2c1` (stereo not drawn) is lower in inhibition at 0.01 µM: 37% for the first, 18% for the second.

Going from `O=C1C[C@H](C(=O)Nc2cccc(Nc3ccc4c(/C=C/c5ccccc5)n[nH]c4c3)c2)NC(=O)N1` to `O=C1NCC(C(=O)Nc2cccc(Nc3ccc4c(/C=C/c5ccccc5)n[nH]c4c3)c2)N1` (stereo not drawn), the inhibition at 0.01 µM falls from 17% to 7%.

Compared with `C[C@@]12C[C@H]3C[C@H]1C[C@@]3(C(=O)Nc1cccc(Nc3ccc4c(/C=C/c5ccccc5)n[nH]c4c3)c1)C2`, `CC1(C)C(C(=O)Nc2cccc(Nc3ccc4c(/C=C/c5ccccc5)n[nH]c4c3)c2)C1(C)C` is higher in inhibition at 0.01 µM: 15% for the first, 25% for the second.

First: O=C(Cc1c(F)cccc1F)Nc1cccc(C(=O)c2ccc3c(/C=C/c4ccccc4)n[nH]c3c2)c1
Second: O=C(Cc1cc(F)cc(F)c1)Nc1cccc(C(=O)c2ccc3c(/C=C/c4ccccc4)n[nH]c3c2)c1
The inhibition at 0.01 µM of the first is lower: 81% for the first, 87% for the second.

First: Cc1cc(C(=O)Nc2cccc(C(=O)c3ccc4c(/C=C/c5ccccc5)n[nH]c4c3)c2)oc(=O)c1
Second: Cc1ccc(CCC(=O)Nc2cccc(C(=O)c3ccc4c(/C=C/c5ccccc5)n[nH]c4c3)c2)cc1
The inhibition at 0.01 µM of the first is higher: 64% for the first, 57% for the second.

Going from `O=C(/C=C/C(=O)Nc1cccc(C(=O)c2ccc3c(/C=C/c4ccccc4)n[nH]c3c2)c1)NCC1CC1` to `CCO/C(C)=C/C(=O)Nc1cccc(C(=O)c2ccc3c(/C=C/c4ccccc4)n[nH]c3c2)c1`, the inhibition at 0.01 µM rises from 3% to 72%.

Compared with `O=C(c1cccc(NC(=O)C2C[C@H]3C=C[C@H]2C3)c1)c1ccc2c(/C=C/c3ccccc3)n[nH]c2c1` (stereo partly drawn), `O=C(c1cccc(NC(=O)C2CC3C=CC2CC3)c1)c1ccc2c(/C=C/c3ccccc3)n[nH]c2c1` (stereo not drawn) is lower in inhibition at 0.01 µM: 44% for the first, 42% for the second.

First: CC(C)=NOC(C)C(=O)Nc1cccc(Nc2ccc3c(/C=C/c4ccccc4)n[nH]c3c2)c1 (stereo not drawn)
Second: CC(C)=NOC(C)C(=O)Nc1cccc(C(=O)c2ccc3c(/C=C/c4ccccc4)n[nH]c3c2)c1 (stereo not drawn)
The inhibition at 0.01 µM of the first is lower: -1% for the first, 28% for the second.

First: CN(C)CCCC(=O)Nc1cccc(Oc2ccc3c(/C=C/c4ccccc4)n[nH]c3c2)c1
Second: CN(C)CCCC(=O)Nc1cccc(Nc2ccc3c(/C=C/c4ccccc4)n[nH]c3c2)c1
The inhibition at 0.01 µM of the first is higher: 96% for the first, 30% for the second.

Going from `CCNc1ccccc1C(=O)Nc1cccc(Oc2ccc3c(/C=C/c4ccccc4)n[nH]c3c2)c1` to `CC(C)c1ccccc1C(=O)Nc1cccc(Oc2ccc3c(/C=C/c4ccccc4)n[nH]c3c2)c1`, the inhibition at 0.01 µM falls from 85% to 35%.

Going from `CC1(C)OC(=O)[C@H](CC(=O)Nc2cccc(Nc3ccc4c(/C=C/c5ccccc5)n[nH]c4c3)c2)O1` to `Cc1nc(S)sc1CC(=O)Nc1cccc(Nc2ccc3c(/C=C/c4ccccc4)n[nH]c3c2)c1`, the inhibition at 0.01 µM falls from 20% to 19%.

Going from `CC(=O)N1CCC(C(=O)Nc2cccc(Oc3ccc4c(/C=C/c5ccccc5)n[nH]c4c3)c2)CC1` to `O=C1CCC(C(=O)Nc2cccc(Oc3ccc4c(/C=C/c5ccccc5)n[nH]c4c3)c2)CC1`, the inhibition at 0.01 µM rises from 42% to 59%.

First: O=C(c1cccc(NC(=O)C2CC3C=CCC(C3)C2)c1)c1ccc2c(/C=C/c3ccccc3)n[nH]c2c1 (stereo not drawn)
Second: O=C(c1cccc(NC(=O)C2CCOC2)c1)c1ccc2c(/C=C/c3ccccc3)n[nH]c2c1 (stereo not drawn)
The inhibition at 0.01 µM of the first is higher: 56% for the first, 12% for the second.

Compared with `O=C(Nc1cccc(Oc2ccc3c(/C=C/c4ccccc4)n[nH]c3c2)c1)C1CCCO1` (stereo not drawn), `O=C1CC[C@H](C(=O)Nc2cccc(Oc3ccc4c(/C=C/c5ccccc5)n[nH]c4c3)c2)N1` is lower in inhibition at 0.01 µM: 51% for the first, 32% for the second.

Going from `O=C1CCC(C(=O)Nc2cccc(C(=O)c3ccc4c(/C=C/c5ccccc5)n[nH]c4c3)c2)CC1` to `O=C1CC[C@H](C(=O)Nc2cccc(C(=O)c3ccc4c(/C=C/c5ccccc5)n[nH]c4c3)c2)N1`, the inhibition at 0.01 µM rises from 10% to 32%.

Compared with `C[C@@H]1[C@H](C)[C@H](C)C[C@@H]1C(=O)Nc1cccc(Oc2ccc3c(/C=C/c4ccccc4)n[nH]c3c2)c1`, `CN1CC(C(=O)Nc2cccc(Oc3ccc4c(/C=C/c5ccccc5)n[nH]c4c3)c2)CC1=O` (stereo not drawn) is higher in inhibition at 0.01 µM: 23% for the first, 24% for the second.

Going from `CN1CCC=C(C(=O)Nc2cccc(Oc3ccc4c(/C=C/c5ccccc5)n[nH]c4c3)c2)C1` to `COc1cccc(CC(=O)Nc2cccc(Oc3ccc4c(/C=C/c5ccccc5)n[nH]c4c3)c2)c1`, the inhibition at 0.01 µM rises from 43% to 86%.

Going from `CN1CSCCC1C(=O)Nc1cccc(Nc2ccc3c(/C=C/c4ccccc4)n[nH]c3c2)c1` (stereo not drawn) to `CC(C)CC(O)C(=O)Nc1cccc(Nc2ccc3c(/C=C/c4ccccc4)n[nH]c3c2)c1` (stereo not drawn), the inhibition at 0.01 µM rises from 0% to 25%.

First: O=C(Nc1cccc(Nc2ccc3c(/C=C/c4ccccc4)n[nH]c3c2)c1)C(=O)C1=CCCCC1
Second: COC1CCCC(C(=O)Nc2cccc(C(=O)c3ccc4c(/C=C/c5ccccc5)n[nH]c4c3)c2)C1 (stereo not drawn)
The inhibition at 0.01 µM of the first is lower: 23% for the first, 30% for the second.

Going from `Cc1nc(S)sc1CC(=O)Nc1cccc(C(=O)c2ccc3c(/C=C/c4ccccc4)n[nH]c3c2)c1` to `O=C(CCN1CCCCC1)Nc1cccc(C(=O)c2ccc3c(/C=C/c4ccccc4)n[nH]c3c2)c1`, the inhibition at 0.01 µM falls from 24% to 2%.

Going from `COc1cccc(/C=C/C(=O)Nc2cccc(Oc3ccc4c(/C=C/c5ccccc5)n[nH]c4c3)c2)c1` to `O=C1C[C@H](C(=O)Nc2cccc(C(=O)c3ccc4c(/C=C/c5ccccc5)n[nH]c4c3)c2)NC(=O)N1`, the inhibition at 0.01 µM falls from 64% to -36%.
